Laboratory results reported in patent US20200093864A1, “NOVEL THERAPEUTIC STEM CELL COMPOSITIONS WITH AN ACTIVE OXIDATIVE PHOSPHORYLATION SITE AND THEIR PREPARATION” (priority 2018, published 2020).

Assays:
[1] = test system: person with metastatic prostate cancer; test: Example 1: intravenous activated stem cell therapy, patient case; assay type: in vivo, human; settings: following luprolide therapy, over three months; 8.0 before
Protocol: Preparation of human mesenchymal stem cells containing an increased concentration of the active site of oxidative phosphorylation, TR2CoO3O2NAD^+H2PO4^−, is accomplished by incubation of stem cells in cell culture medium containing thioretinaco (TR2Co), 30 mg/dL, and […] (NAD^+H2PO4^−), 30 mg/dL, and exposed to an atmosphere containing ozone […], 1-10% by volume. Human mesenchymal stem cells are isolated by liposuction or by bone marrow aspiration, followed by collagenase digestion, filtration of cellular debris, centrifugation and adherence of the cellular pellet to the surface of the cell culture dish. Adherent mesenchymal stem cells are maintained in cell culture medium for 4-5 days at about 37 degrees centigrade at atmospheric pressure until 90% confluency is achieved, subsequently passaged by trypsinization four additional times, and washed in buffered saline for use. Aliquots of the mesenchymal stem cells are checked for cell viability, and absence of fungal, bacterial, endotoxin and mycoplasma contamination. Multiple doses of 10^8 cells are delivered in 100 ml of sterile saline intravenously to achieve a total dose of 2.5×10^10 cells over a period of two years. The final concentration of TR2CoO3O2NAD^+H2PO4^− within the activated stem cells is approximately 10-300 μg/g.
A person was evaluated for treatment of metastatic prostate cancer. […]

[2] = test system: human pancreatic cancer cells growing in athymic mice; settings: direct injection into subcutaneous tumors, cited from earlier work; for tumor growth inhibition (in words): 6 weeks, vs propylene glycol vehicle controls
[3] = test system: human adenocarcinoma cells; test: Growth of cultured human adenocarcinoma cells (Example 7); assay type: cell-based; settings: for growth of cultured human adenocarcinoma cells (in words): Table 2 summary; for cell growth (10^5): cell numbers on day 4, 10^5 cells passaged day 0; for cell growth (10^5) / cell growth (% of control): TR2Co and TR 30 mg/dL, hMSC 10^5 added; for cell growth (% of control): day 4
Protocol: Human adenocarcinoma cells were cultured in RPMI medium with added fetal bovine serum and antibiotics, as reported by McCully K S et al in Research Communications in Chemical Pathology and Pharmacology, 1992; 77: 125-128. Equal numbers (10^5) of adenocarcinoma cells were trypsinized and passaged on day 0, and the cells were refed with media containing test compounds on days 1 and 3. Cell numbers were determined by trypsinization on day 4. Thioretinaco (TR2Co) and thioretinamide (TR) were synthesized, as previously described (McCully U.S. Pat. No. 4,618,685; McCully U.S. Pat. No. 4,925,931) and dissolved in absolute ethanol. Propylene glycol (PG) was added to the ethanol solutions of the test compounds, the ethanol was evaporated under reduced pressure at 37° C., and the resulting solutions in propylene glycol were added to the culture media. Human mesenchymal stem cells (hMSC) were incubated with cell culture medium containing TR2Co, NAD^+ and H2PO4^− in an atmosphere containing 5% ozone (O3), to produce activated stem cells and 10^5 hMSC were added to the culture medium containing adenocarcinoma cells. Equal numbers (10^5) of hMSC without exposure to TR2Co, O3, NAD^+ and H2PO4^− served as controls.

[4] = test system: human pancreatic carcinoma cells; settings: added in the culture medium, after 4 days, compared with ethanol vehicle controls; cited from earlier work
[5] = test system: cultured normal fibroblasts; settings: thioretinaco in culture medium; cited from earlier work

| Compound | tumor growth inhibition (in words) [2] | growth of cultured human adenocarcinoma cells (in words) [3] | cell growth (10^5) [3] | cell growth (% of control) [3] | cellular growth (in words) [4] | other results |
| --- | --- | --- | --- | --- | --- | --- |
| luprolide |  |  |  |  |  | PSA value [1]: 0.1 ng/mL |
| homocysteine thiolactonyl cobalamin | no growth inhibition |  |  |  |  |  |
| CC1=C(/C=C/C(C)=C/C=C/C(C)=C/C(=O)NC2CCSC2=O)C(C)(C)CCC1 (stereo not drawn) [TR, N-homocysteine thiolactonyl retinamide] | no growth inhibition | significantly inhibit | 1.4 ± 0.50 10^5 | 19 % of control | inhibition of cellular growth |  |
| C/C1=C2/[N-][C@H]([C@H](CC(N)=O)[C@@]2(C)CCC(=O)NC[C@@H](C)OP(=O)([O-])O[C@H]2[C@@H](O)[C@@H](n3cnc4cc(C)c(C)cc43)O[C@@H]2CO)[C@]2(C)N=C(/C(C)=C3N=C(/C=C4N=C1[C@@H](CCC(N)=O)C\4(C)C)[C@@H](CCC(N)=O)[C@]\3(C)CC(N)=O)[C@@H](CCC(N)=O)[C@]2(C)CC(N)=O.[CH2-][C@H]1O[C@@H](n2cnc3c(N)ncnc32)[C@H](O)[C@@H]1O.[Co] [adenosyl cobalamin] | no growth inhibition |  |  |  |  |  |
| N-homocysteine thiolactonyl retinamido cobalamin [TR2Co] |  | significantly inhibit | 2.5 ± 0.82 10^5 | 33 % of control | inhibition of cellular growth | reduction of tumor weight ([2]; after 6 weeks of growth, compared with propylene glycol vehicle controls): 50%; growth of cultured normal fibroblasts (in words) [5]: Only the highest concentrations of thioretinaco decrease growth |
| N[C@H]1CCSC1=O.[O-][Cl+3]([O-])([O-])O [homocysteine thiolactone perchlorate] | no growth inhibition |  |  |  |  |  |
